Reference: BindingDB's records for doi:10.1021/jm000496v (Welfide, 2001)

Molecular target: Chymotrypsinogen A (Bos taurus) (UniProt P00766)
Assay: Inhibitory activity against alpha chymotrypsin from bovine pancreas.

## Nc1cnc(-c2ccc(F)cc2)n(CC(=O)NC(Cc2ccccc2)C(=O)c2nc3cc(-c4ccccc4)ccc3o2)c1=O (stereo unspecified) [2-[5-Amino-2-(4-fluoro-phenyl)-6-oxo-6H-pyrimidin-1-yl]-N-[1-benzyl-2-oxo-2-(5-phenyl-benzooxazol-2-yl)-ethyl]-acetamide]
  Ki: 1630 nM
